Reference: patent publication US20120202856A1, “SUBSTITUTED BENZIMDAZOLE DERIVATIVES USEFUL AS TRPM8 RECEPTOR MODULATORS” (priority 2011, published 2012)
Values joined by “and” are separate entries in the source; they are usually repeats but may differ in a detail not shown here. Identical values can stand only once. Counter-ions that a name gives are not always drawn. Like-named read-outs stand apart in the source and are kept apart here.

Molecular target: T1, canine TRPM8 (Canis lupus familiaris, UniProt Q1A7N1)
T1 construct: expressed in transfected cells
T1 sequence (Q1A7N1 1-1104): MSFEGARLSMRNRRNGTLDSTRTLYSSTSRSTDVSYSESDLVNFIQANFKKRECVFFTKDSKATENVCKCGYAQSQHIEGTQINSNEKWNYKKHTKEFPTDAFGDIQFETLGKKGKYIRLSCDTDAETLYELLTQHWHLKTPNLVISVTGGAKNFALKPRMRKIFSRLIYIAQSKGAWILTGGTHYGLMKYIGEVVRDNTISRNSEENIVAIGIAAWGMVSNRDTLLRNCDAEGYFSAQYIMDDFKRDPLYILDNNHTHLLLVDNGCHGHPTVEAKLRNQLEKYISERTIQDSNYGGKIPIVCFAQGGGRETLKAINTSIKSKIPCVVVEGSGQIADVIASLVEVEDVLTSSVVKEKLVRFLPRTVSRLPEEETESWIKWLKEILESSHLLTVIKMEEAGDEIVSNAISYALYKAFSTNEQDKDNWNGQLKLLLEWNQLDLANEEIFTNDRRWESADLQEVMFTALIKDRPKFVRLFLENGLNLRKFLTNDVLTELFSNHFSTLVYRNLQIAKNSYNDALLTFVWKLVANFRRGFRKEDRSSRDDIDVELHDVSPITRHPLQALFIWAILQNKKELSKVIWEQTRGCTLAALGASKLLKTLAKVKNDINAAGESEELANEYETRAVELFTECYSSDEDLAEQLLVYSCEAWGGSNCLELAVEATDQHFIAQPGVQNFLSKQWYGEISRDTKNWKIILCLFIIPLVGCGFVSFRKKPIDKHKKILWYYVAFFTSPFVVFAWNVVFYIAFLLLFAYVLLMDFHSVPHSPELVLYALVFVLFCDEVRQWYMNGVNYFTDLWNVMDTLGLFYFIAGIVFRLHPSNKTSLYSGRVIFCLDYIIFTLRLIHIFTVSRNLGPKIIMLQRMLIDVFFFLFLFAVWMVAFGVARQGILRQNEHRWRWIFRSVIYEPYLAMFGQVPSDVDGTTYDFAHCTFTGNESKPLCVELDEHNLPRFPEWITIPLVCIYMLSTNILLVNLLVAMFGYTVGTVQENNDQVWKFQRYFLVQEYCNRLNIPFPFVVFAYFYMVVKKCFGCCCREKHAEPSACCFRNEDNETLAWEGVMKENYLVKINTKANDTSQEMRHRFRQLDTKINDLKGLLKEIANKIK
Test: In Vitro Canine TRPM8 Functional Assay (intracellular Ca2+ fluorescence, icilin activation, HEK293 cells)
Type: cell-based
Conditions: for IC50: HEK293 cells expressing canine TRPM8, icilin activation, individually measured values (batches/salt forms), read-out: IC50 (nM), in vitro TRP M8 Activity
Experimental: The changes in fluorescent signal were monitored by a fluorescence plate reader, either a FLIPR™ (Molecular Devices) or FDSS (Hamamatsu). […] Cells were maintained in 5% CO2 at 37° C. At 24 hr prior to assay, cells were seeded in black wall, clear-base poly-D-lysine coated 384-well plates (BD Biosciences, NJ, USA) at a density of 5,000 cells per well in culture medium and grown overnight in 5% CO2 at 37° C. On assay day, growth media was removed, and cells were loaded with Calcium 3 Dye (Molecular Devices) for 35 min at 37° C., under 5% CO2 and then incubated for 25 min at room temperature and atmosphere. Subsequently, cells were tested for agonist-induced increases in intracellular Ca^2+ levels using FLIPR™ or FDSS. […] Maximal fluorescence intensity (FI) achieved upon addition of icilin was exported from the FLIPR™ or FDSS software and further analyzed using GraphPad Prism 3.02 (Graph Pad Software Inc., CA, U.S.A.). Basal FI was subtracted prior to normalizing data to percent of maximal response. Curves were generated using the average of quadruplicate wells for each data point using nonlinear regression of either sigmoidal dose response or sigmoidal dose response (variable slope). Finally, IC50 values were calculated with the best-fit curve determined by GraphPad Prism

[1] = HEK293, 0.2 μM test compound, individually measured values, read-out: % Inh (%) @0.2 μM, in vitro TRP M8 Activity
[2] = HEK293, read-out: % Inh (%) @0.2 μM, in vitro TRP M8 Activity, 0.2 μM test compound, individually measured values

Row | SMILES | IC50 | inhibition at 0.2 µM [1] [%] | also measured
1 | CC(C)(C)c1cc(-c2nc3cc(-c4c(F)cccc4OC(F)(F)F)ccc3[nH]2)on1 [Compound 103, 2-(3-tert-Butyl-isoxazol-5-yl)-5-(2-fluoro-6-trifluoromethoxy-phenyl)-1H-benzimidazole hydrochloride] | 4.5 nM | – | –
2 | Cc1c(C(C)(C)C)nn(C)c1-c1nc2cc(-c3ccccc3Cl)cc(C(F)(F)F)c2[nH]1 [Compound 121, 2-(5-tert-Butyl-2,4-dimethyl-2H-pyrazol-3-yl)-5-(2-chloro-phenyl)-7-trifluoromethyl-1H-benzimidazole hydrochloride] | 3.1 nM | – | –
3 | Cn1nc(C(C)(C)C)c(Cl)c1-c1nc2cc(-c3c(F)cccc3OC(F)(F)F)cc(C(F)(F)F)c2[nH]1 [Compound 126, 2-(5-tert-Butyl-4-chloro-2-methyl-2H-pyrazol-3-yl)-5-(2-fluoro-6-trifluoromethoxy-phenyl)-7-trifluoromethyl-1H-benzimidazole hydrochloride] | 3.9 nM and 3.5 nM | 99 | –
4 | Cn1nc(C(C)(C)C)c(C#N)c1-c1nc2cc(-c3c(F)cccc3OC(F)(F)F)cc(Cl)c2[nH]1 [Compound 173, 3-tert-Butyl-5-[7-chloro-5-(2-fluoro-6-trifluoromethoxy-phenyl)-1H-benzimidazol-2-yl]-1-methyl-1H-pyrazole-4-carbonitrile sodium salt] | 10.7 nM | 100 | –
5 | Cc1c(C(C)(C)C)nn(C)c1-c1nc2cc(-c3c(F)cccc3OC(F)(F)F)cc(Cl)c2[nH]1 [Compound 138, 2-(5-tert-Butyl-2,4-dimethyl-2H-pyrazol-3-yl)-7-chloro-5-(2-fluoro-6-trifluoromethoxy-phenyl)-1H-benzimidazole hydrochloride] | 7.7 nM and 6.8 nM | 99 | –
6 | Cc1nc(C(C)(C)C)oc1-c1nc2cc(-c3ccccc3Cl)cc(Cl)c2[nH]1 [Compound 181, 2-(2-tert-Butyl-4-methyl-oxazol-5-yl)-7-chloro-5-(2-chloro-phenyl)-1H-benzimidazole hydrochloride] | – | 15 | –
7 | Cn1nc(C(C)(C)C)c(C#N)c1-c1nc2cc(-c3ccccc3OC(F)(F)F)cc(C(F)(F)F)c2[nH]1.[Na] [Compound 150, 3-tert-Butyl-1-methyl-5-[5-(2-trifluoromethoxy-phenyl)-7-trifluoromethyl-1H-benzimidazol-2-yl]-1H-pyrazole-4-carbonitrile sodium salt] | 5.7 nM and 7.2 nM and 8.3 nM | – | % Inh (%) @0.2 μM, in vitro TRP M8 Activity (0.2 μM test compound, individually measured values): 100, 100%; inhibition at 0.2 µM [2]: 100%
8 | Cn1nc(C(C)(C)C)c(C(F)(F)F)c1-c1nc2cc(-c3ccccc3OC(F)(F)F)cc(C(F)(F)F)c2[nH]1 [Compound 188, 2-(5-tert-Butyl-2-methyl-4-trifluoromethyl-2H-pyrazol-3-yl)-5-(2-trifluoromethoxy-phenyl)-7-trifluoromethyl-1H-benzimidazole sodium salt] | 35 nM | 99 | –
9 | Cc1nc(C(C)(C)C)oc1-c1nc2cc(-c3ccccc3OC(F)(F)F)cc(C(F)(F)F)c2[nH]1 [Compound 176, 2-(2-tert-Butyl-4-methyl-oxazol-5-yl)-5-(2-trifluoromethoxy-phenyl)-7-trifluoromethyl-1H-benzimidazole hydrochloride] | – | 60 | –
10 | Cn1nc(C(C)(C)C)c(Cl)c1-c1nc2cc(-c3ccccc3C(F)(F)F)cc(C(F)(F)F)c2[nH]1 [Compound 129, 2-(5-tert-Butyl-4-chloro-2-methyl-2H-pyrazol-3-yl)-7-trifluoromethyl-5-(2-trifluoromethyl-phenyl)-1H-benzimidazole hydrochloride] | 6.2 nM and 4.1 nM | 99 | –
11 | Cc1c(C(C)(C)C)nn(C)c1-c1nc2cc(-c3c(F)cccc3OC(F)(F)F)ccc2[nH]1 [Compound 96, 2-(5-tert-Butyl-2,4-dimethyl-2H-pyrazol-3-yl)-5-(2-fluoro-6-trifluoromethoxy-phenyl)-1H-benzimidazole hydrochloride] | 6.6 nM | – | –
12 | Cc1nc(C(C)(C)C)oc1-c1nc2cc(-c3ccccc3F)cc(C(F)(F)F)c2[nH]1 [Compound 175, 2-(2-tert-Butyl-4-methyl-oxazol-5-yl)-5-(2-fluoro-phenyl)-7-trifluoromethyl-1H-benzimidazole hydrochloride] | – | 48 | –
13 | COc1ccccc1-c1ccc2[nH]c(-c3cc(C(C)C)no3)nc2c1 [Compound 2, 2-(3-Isopropylisoxazol-5-yl)-5-(2-methoxyphenyl)-1H-benzimidazole sodium salt] | 16 nM | – | –
14 | Cn1nc(-c2nc3cc(-c4ccccc4C(F)(F)F)ccc3[nH]2)cc1C1CCC1 [Compound 91, 2-(5-Cyclobutyl-1-methyl-1H-pyrazol-3-yl)-5-(2-trifluoromethyl-phenyl)-1H-benzimidazole] | – | 7 | –
15 | FC(F)(F)Oc1ccccc1-c1ccc2[nH]c(-c3cc(C4CC4)no3)nc2c1 [Compound 17, 2-(3-cyclopropylisoxazol-5-yl)-5-(2-trifluoromethoxyphenyl)-1H-benzimidazole sodium salt] | 52 nM | – | –
16 | FC(F)(F)Oc1ccccc1-c1ccc2nc(-c3cc(C4CCCCC4)no3)[nH]c2c1 [Compound 25, 2-(3-Cyclohexylisoxazol-5-yl)-6-(2-trifluoromethoxyphenyl)-1H-benzimidazole hydrochloride] | – | 63 | –
17 | Cc1oc(C(C)(C)C)nc1-c1nc2cc(-c3ccccc3C(F)(F)F)cc(C(F)(F)F)c2[nH]1 [Compound 153, 2-(2-tert-Butyl-5-methyl-oxazol-4-yl)-7-trifluoromethyl-5-(2-trifluoromethyl-phenyl)-1H-benzimidazole hydrochloride] | – | 25 | –
18 | Cc1c(C(C)(C)C)nn(C)c1-c1nc2cc(-c3ccccc3Cl)ccc2[nH]1 [Compound 94, 2-(5-tert-Butyl-2,4-dimethyl-2H-pyrazol-3-yl)-5-(2-chloro-phenyl)-1H-benzimidazole hydrochloride] | 4.5 nM | – | –
19 | COc1cccc(F)c1-c1ccc2[nH]c(-c3cc(C(C)(C)C)no3)nc2c1 [Compound 64, 2-(3-tert-Butyl-isoxazol-5-yl)-5-(2-fluoro-6-methoxy-phenyl)-1H-benzimidazole trifluoroacetic acid salt] | 8.7 nM | – | –
20 | CC(C)(C)c1cc(-c2nc3cc(-c4ccccc4OC(F)(F)F)cc(C(F)(F)F)c3[nH]2)on1 [Compound 143, 2-(3-tert-Butyl-isoxazol-5-yl)-5-(2-trifluoromethoxy-phenyl)-7-trifluoromethyl-1H-benzimidazole sodium salt] | 2.5 nM and 3.7 nM | – | inhibition at 0.2 µM [2]: 99%
21 | Cc1oc(C(C)(C)C)nc1-c1nc2cc(-c3ccccc3F)cc(Cl)c2[nH]1 [Compound 161, 2-(2-tert-Butyl-5-methyl-oxazol-4-yl)-7-chloro-5-(2-fluoro-phenyl)-1H-benzimidazole hydrochloride] | – | 36 | –
22 | Cc1oc(-c2nc3cc(-c4ccccc4F)cc(C(F)(F)F)c3[nH]2)nc1C(C)(C)C [Compound 193, 2-(4-tert-Butyl-5-methyl-oxazol-2-yl)-5-(2-fluoro-phenyl)-7-trifluoromethyl-1H-benzimidazole hydrochloride] | – | 18 | –
23 | FC(F)(F)Oc1ccccc1-c1ccc2[nH]c(-c3cc(Br)no3)nc2c1 [Compound 43, 2-(3-Bromoisoxazol-5-yl)-5-(2-trifluoromethoxyphenyl)-1H-benzimidazole sodium salt] | 94.6 nM | – | –
